Reference: patent publication US20040077028A1, “Assay for thrombocytopenia associated with administration of platelet GPIIb-IIIa receptor antagonists” (priority 2002, published 2004)
Positions of bridges follow the written chain, without caps; N, C: chain ends. Non-standard residues stand in square brackets, D forms with d. Residues, ends and D or L forms follow the SMILES beside them. hArg = N=C(N)NCCCC[C@H](N)C(=O)O; Mpa = O=C(O)CCS

Key:
[1] = system: platelets (leukocyte-platelet aggregates) in citrate anticoagulated whole blood; test: Neutrophil-platelet (leukocyte-platelet) aggregates by flow cytometry in whole blood with Y2/51; format: cell-based; details: abciximab 6.5 μg/ml, tirofiban 50 ng/ml, FITC conjugated Y2/51, FIG. 1
Source text: In some embodiments, platelet activation is detected by assaying leukocyte-platelet aggregation. In such protocols, peripheral blood is drawn from a subject into a suitable anticoagulant, for example 3.2% sodium citrate anticoagulant or PPACK. […] ADP is not generally used in the assay when the subject is receiving ADP receptor antagonist therapy. […] The fluorescent conjugates of the reagents are labeled to be distinguishable from each other (e.g., fluorescein and phycoerythrin) so that both can be detected by flow cytometry. […] Samples are generally analyzed by flow cytometry. […] Leukocyte-platelet aggregates are identified using fluorescence histograms displaying fluorescence (above background) of platelet specific markers (e.g., CD41, CD61, CD42a or CD42b) from the gated monocyte, neutrophil or lymphocyte populations. Both the mean fluorescence intensity and the percent positive (above background) measurements are recorded. The relative amount of fluorescence (or percent positive above background) in the subject's sample is compared to a reference. An increase in the amount of fluorescence (or percent positive above background) in the subject's sample compared to the reference indicates an increased amount of platelet activation in the subject's sample. […]

[2] = system: platelets (platelet surface P-selectin expression); test: Platelet surface P-selectin expression by flow cytometry with GPIIb-specific antibody 5B12; format: cell-based; details: 5B12 (GPIIb-specific) instead of Y2/51; sub-maximal agonist; FIG. 2
Procedure: After a subject's blood sample has been incubated with a GPIIb-IIIa antagonist as described above, it is diluted (e.g., between 1:10 and 1:15) in autologous platelet-poor plasma (PPP). Platelet activation is assayed. Briefly, an aliquot (e.g., 20 μl) of dilute whole blood (or PRP)-GPIIb-IIIa receptor antagonist mix is incubated for 15-30 minutes at an appropriate temperature (for example, between about 22° C. and 37° C.) with sub-maximal concentration of a platelet agonist (e.g., in 10 μl). Examples of sub-maximal concentrations of platelet agonist are 0.5 μM ADP, 5.0 μM thrombin receptor activating peptide (TRAP), or 1.5 μM iso-TRAP. ADP is not generally used in the assay when the subject is receiving ADP receptor antagonist therapy. To identify platelets and to detect platelet activation, detection reagents are added.
The samples are generally analyzed using flow cytometry. Platelets are identified by light scatter characteristics and labeling of platelets using platelet-specific antibodies (e.g., antibodies that recognize CD41, CD61, CD42a, or CD42b). The binding of antibodies directed against indicators of platelet activation (e.g., anti-P-selectin, CD62P) is assayed using flow cytometry. […] The mean fluorescence intensity and the percent positive (above background) measurements are recorded.
In a second set of experiments, the monoclonal antibody 5B12 (DAKO) which is GPIIb-specific was used instead of Y2/51.

[3] = cited from earlier work
[4] = system: platelets (platelet P-selectin expression); details: platelet-rich plasma; 1 μg/ml eptifibatide; 0.5 μM ADP; absence of Mab IV.3; FIG. 3
Procedure: In these experiments, platelet-rich plasma was pre-incubated with FcγRII receptor blocking monoclonal antibody (Mab IV.3, 10 μg/ml). […] The mean fluorescence intensity of platelet P-selectin expression in the presence of 0.5 μM ADP was measured in the presence or absence of unconjugated Y2/51 and in the presence or absence of GPIIb-IIIa receptor antagonist, and with or without an FcγRII receptor blocking monoclonal antibody (Mab IV.3).

[5] = within the patient population that develops an HACA response

Row | Molecule | augmentation by Y2/51 of agonist-induced leukocyte-platelet aggregation (neutrophil-platelet aggregates) in the presence of the GPIIb-IIIa antagonist [1] | augmentation of agonist-induced platelet surface P-selectin expression in the presence of the GPIIb-IIIa antagonist with 5B12 [2] | incidence of thrombocytopenia (platelet count of <100×10^9/L) ([3]; patients receiving the drug for a second time (re-administration)) | incidence of profound thrombocytopenia (platelet count of <20×10^9/L) [3, 5] | incidence of thrombocytopenia (count of <100×10^9/L) [3, 5] | augmentation by Y2/51 of ADP-mediated platelet activation (P-selectin) in the presence of the antagonist [4]
1 | abciximab | did not augment | observed | 3.6% | less than 1% | 3.5% | 
2 | N=C(N)NCCCC[C@@H]1NC(=O)CCSSC[C@@H](C(N)=O)NC(=O)[C@@H]2CCCN2C(=O)[C@H](Cc2c[nH]c3ccccc23)NC(=O)[C@H](CC(=O)O)NC(=O)CNC1=O [eptifibatide] ([Mpa][hArg]GDWPC-NH2; disulfide 1-7) |  | not augmented |  |  |  | augments
3 | CCCCS(=O)(=O)N[C@@H](Cc1ccc(OCCCCC2CCNCC2)cc1)C(=O)O [tirofiban] | augmented | not augmented |  |  |  | 
